Entries after “also recorded” stand apart in the source; their conditions may differ.
What was measured:
Aβ42 oligomers = molecular target: T1, Aβ42 oligomers (Homo sapiens, UniProt P05067); experiment: ELISA with oligomer-specific antibody; type: biochemical; details: 5 μM Aβ42; 5-fold excess; at half-time of Aβ42 alone
T1 construct: made in house; host or cells: E. coli BL21 Gold (DE3)
Description: 20 μl Aliquots were taken at the t50 (i.e. half-time) from aggregation reactions of 5 μM Aβ42 in the absence and in the presence of 5-fold excess of Netoglitazone. Samples were then immobilised on a 96-well Maxisorp ELISA plate (Nunc, Roskilde, Denmark) with no shaking for 1 h at room temperature. The plate was then washed three times with 20 mM Tris pH 7.4, 100 mM NaCl and incubated in 20 mM Tris pH 7.4, 100 mM NaCl, 5% BSA under constant shaking overnight at 4° C. The day after the plate was washed six times with 20 mM Tris pH 7.4, 100 mM NaCl and then incubated with 30 μl solutions of 5 μM oligomer-specific antibody under constant shaking either for 1 hour or overnight at room temperature. At the end of this incubation, the plate was washed six times with 20 mM Tris pH 7.4, 100 mM NaCl and incubated with 30 μl solutions of Rabbit polyclonal to 6× His Tag® HRP conjugated (Abcam, Cambridge, UK) at a dilution of 1:4000 in 20 mM Tris pH 7.4, 100 mM NaCl, 5% BSA under shaking for 1 hour at room temperature. […] Finally, the amount of bound oligomer-specific antibody was quantified by using 1-Step™ Ultra TMB-ELISA Substrate Solution (ThermoFisher Scientific, Waltham, Mass., United States), according to manufacturer instructions, and measuring the absorbance at 450 nm by means of a CLARIOstar plate reader (BMG Labtech, Aylesbury, UK).

[1] = molecular target: T2, Aβ plaques in AD worms (GMC101) (Homo sapiens, UniProt P05067); experiment: NIAD-4 staining of plaques load in living AD worms; type: in vivo, C. elegans
T2 construct: unc-54p::A-beta-1-42 expresses full-length human Aβ42 peptide in body wall muscle cells; expressed in transfected cells; host or cells: C. elegans strain GMC101 (dvIs100), body wall muscle cells
T2 sequence (P05067 672-713 limits assumed): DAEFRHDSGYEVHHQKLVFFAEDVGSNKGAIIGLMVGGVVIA
Description: GMC101 dvIs100 [unc-54p::A-beta-1-42::unc-54 3′UTR+mtl-2p::GFP]. mtl-2p::GFP produces constitutive expression of GFP in intestinal cells. unc-54p::A-beta-1-42 expresses full-length human Aβ42 peptide in body wall muscle cells that aggregates in vivo. Shifting L4 or young adult animals from 20° to 24° C. causes paralysis (G. McColl et al., Utility of an improved model of amyloid-beta (Aβ1-42) toxicity in Caenorhabditis elegans for drug screening for Alzheimer's disease. Mol Neurodegener. 7, 57 (2012));
Briefly, Netoglitazone stocks (5 mM in 100% DMSO) were used at an appropriate concentration to seed 9-cm NGM plates. Plates were then placed in a laminar flow hood at room temperature (22° C.) for up to 4 hours to dry. […]
Plaques staining was carried out as previously described (J. Habchi et al. (2016); M. Perni et al., A natural product inhibits the initiation of α-synuclein aggregation & suppresses its toxicity. Proc. Natl. Acad. Sci. U.S.A. 114, E1009-E1017 (2017)). […] Images were captured with a Zeiss Axio Observer D1 fluorescence microscope (Carl Zeiss Microscopy GmbH) with a 20× objective and a 49004 ET-CY3/TRITC filter (Chroma Technology Corp). Fluorescence intensity was calculated using ImageJ software (National Institutes of Health) and then normalized as the corrected total cell fluorescence. […] Statistical significance was determined using t tests.

T1 sequence (P05067 671-713): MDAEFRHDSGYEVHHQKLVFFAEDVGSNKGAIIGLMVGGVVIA

## O=C1NC(=O)C(Cc2ccc3cc(OCc4ccccc4F)ccc3c2)S1 (stereo not drawn) [Netoglitazone]
Aβ42 oligomers
  Aβ42 oligomer concentration (ELISA): significant reduction in the Aβ42 oligomer concentration
[1]; 0.5 μM administered at L4, day 6 of adulthood
  Plaques load in AD worms (NIAD-4 fluorescence): significantly decrease the plaques load; also recorded: Decrease in the plaques load in AD worms
[1]; administered at D3 of adulthood, read at D6
  Plaques load in AD worms after late administration: significant decrease of the plaques load at D6; also recorded: decreases the plaques load at D6 of adulthood

— patent US20210145801A1, “THERAPY FOR PROTEIN MISFOLDING DISEASE” (WREN THERAPEUTICS LIMITED, priority 2018, published 2021)
